From publication PMC5854716, “Synthesis, molecular docking, ctDNA interaction, DFT calculation and evaluation of antiproliferative and anti-Toxoplasma gondii activities of 2,4-diaminotriazine-thiazole derivatives” (Medicinal Chemistry Research, 2018) come the findings set out here.

In data set [1] the test system is VERO cells. Put plainly: Cell viability assay (MTT), VERO. Format: cell-based, Cercopithecus aethiops. As to conditions: concentration for 30% proliferation inhibition, 24 h. Summed up:
(§1)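 L929 and VERO cells seeded at 1.0 × 10^4/well, attached 24 h, then exposed 24 h to compounds at 0.9–125.00 μg/ml (from DMSO stock). MTT (1 mg/ml) added for 2 h at 37 °C, formazan dissolved in DMSO, OD read at 550 nm. Viability expressed as percentage of 2.5% DMSO-treated controls; triplicate.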

Data set [2] deals with human lung carcinoma A549 cells. Put plainly: In vitro antiproliferative assay (SRB), A549. The data set is classed as cell-based. To be noted: mean ± SD; for IC50: Homo sapiens, A549, 72 h exposure.
Data set [3] relates to human breast carcinoma MCF-7 cells. Put plainly: In vitro antiproliferative assay (SRB), MCF-7. The data set is classed as cell-based. To be noted: Homo sapiens, MCF7, 72 h exposure, mean ± SD.
Data set [4] in a line: Cell viability assay (MTT), L929. Format: cell-based, Mus musculus. To be noted: mouse, L929 fibroblast cells. Summed up:
as §1

The test system of data set [5] is mouse L929 fibroblast. Put plainly: Cell viability assay (MTT), L929. Format: cell-based. As to conditions: concentration for 30% proliferation inhibition, 24 h. The procedure, abridged: as §1

Consider `C/C(=N\Nc1nc(-c2ccc(I)cc2)cs1)c1ccc(Nc2nc(N)nc(N)n2)cc1` [Compound 4e, (E)-N^2-(4-(1-(2-(4-(4-iodophenyl)-1,3-thiazol-2-yl)hydrazinylidene)ethyl)phenyl)-1,3,5-triazine-2,4,6-triamine], for which the melting point (commonly the temperature, or range, at which the solid turns liquid) was in the range of 248 to 251 °C. In data set [1], the “CC30 VERO” value is above 125.0 µg/mL. For the same compound, the IC50 – broadly, the concentration at which inhibition is half-maximal – in data set [2] amounted to 45.4 ± 18.3 µg/mL. For the same compound, in data set [3], the IC50 stood at 8.41 ± 0.373 µg/mL. Further, in data set [4], the viability (commonly a read-out of living cells in per cent, often relative to untreated cells) at 24 h, 0.9 µg/ml was 96%; the viability at 24 h, 1.8 µg/ml was 97.6%; the viability at 24 h, 3.9 µg/ml turned out to be 99.1%; the viability at 24 h, 7.8 µg/ml turned out to be 88.8%. In data set [4], the viability at 24 h, 15.6 µg/ml worked out at 98.8%; the viability at 24 h, 31.2 µg/ml turned out to be 108%; the viability at 24 h, 62.5 µg/ml worked out at 109%; the viability at 24 h, 125 µg/ml is 101%. In data set [5], the “CC30 L929” value was above 125.0 µg/mL.

Compound `C/C(=N\Nc1nc(-c2ccccc2)cs1)c1ccc(Nc2nc(N)nc(N)n2)cc1` [Compound 4k, (E)-N^2-(4-(1-(2-(4-phenyl-1,3-thiazol-2-yl)hydrazinylidene)ethyl)phenyl)-1,3,5-triazine-2,4,6-triamine] yielded a melting point above 300 °C. The “CC30 VERO” value in data set [1] was above 125.0 µg/mL. Besides, in data set [2] (72 h exposure), the “IC50 A549” value is listed as “no antiproliferative activity”. For the same compound, the IC50 in data set [3] came to 5.73 ± 2.05 µg/mL. In addition, in data set [4], the viability at 24 h, 0.9 µg/ml amounted to 109%; the viability at 24 h, 1.8 µg/ml came out at 107%; the viability at 24 h, 3.9 µg/ml amounted to 106%; the viability at 24 h, 7.8 µg/ml is 101%. Also, in data set [4], the viability at 24 h, 15.6 µg/ml was found to be 106%; the viability at 24 h, 31.2 µg/ml was found to be 111%; the viability at 24 h, 62.5 µg/ml is 116%; the viability at 24 h, 125 µg/ml was 130%. Also, in data set [5], the “CC30 L929” value was above 125.0 µg/mL.

Compound `C/C(=N\Nc1nc(-c2ccc(Br)cc2)cs1)c1ccc(Nc2nc(N)nc(N)n2)cc1` [Compound 4d, (E)-N^2-(4-(1-(2-(4-(4-bromophenyl)-1,3-thiazol-2-yl)hydrazinylidene)ethyl)phenyl)-1,3,5-triazine-2,4,6-triamine] gave a melting point of 226 to 230 °C. Besides, the “CC30 VERO” value in data set [1] is above 125.0 µg/mL. The IC50 in data set [2] was 24.7 ± 6.1 µg/mL. Further, the IC50 in data set [3] is 3.18 ± 0.192 µg/mL. In addition, in data set [4], the viability at 24 h, 0.9 µg/ml was 99.9%; the viability at 24 h, 1.8 µg/ml came to 97.8%; the viability at 24 h, 3.9 µg/ml was 99.9%; the viability at 24 h, 7.8 µg/ml came to 93.7%. For the same compound, in data set [4], the viability at 24 h, 15.6 µg/ml amounted to 108%; the viability at 24 h, 31.2 µg/ml came to 113%; the viability at 24 h, 62.5 µg/ml was 115%; the viability at 24 h, 125 µg/ml is 113%. In addition, the “CC30 L929” value in data set [5] is above 125.0 µg/mL.

As to `C/C(=N\Nc1nc(-c2ccc(C)cc2)cs1)c1ccc(Nc2nc(N)nc(N)n2)cc1` [Compound 4c, (E)-N^2-(4-(1-(2-(4-(4-tolyl)-1,3-thiazol-2-yl)hydrazinylidene)ethyl)phenyl)-1,3,5-triazine-2,4,6-triamine], the melting point is 231 to 233 °C. Besides, the “CC30 VERO” value in data set [1] is above 125.0 µg/mL. Further, the IC50 in data set [2] came to 62.4 ± 11.5 µg/mL. For the same compound, the IC50 in data set [3] worked out at 8.33 ± 2.83 µg/mL. In data set [4], the viability at 24 h, 0.9 µg/ml was found to be 98.2%; the viability at 24 h, 1.8 µg/ml worked out at 95.5%; the viability at 24 h, 3.9 µg/ml was determined as 98.2%; the viability at 24 h, 7.8 µg/ml was found to be 92.9%. Besides, in data set [4], the viability at 24 h, 15.6 µg/ml came out at 102%; the viability at 24 h, 31.2 µg/ml is 105%; the viability at 24 h, 62.5 µg/ml came to 106%; the viability at 24 h, 125 µg/ml is 118%. The “CC30 L929” value in data set [5] was above 125.0 µg/mL.
